# Measured values taken from patent US11351130B2, “Prevention and reversal of inflammation induced DNA damage” (Indiana University Research and Technology Corporation, priority 2017, dated 2022).
# What was measured:
# [1] = test system: neuronal cultures derived from DRG; assay: pH2A.X immunoblotting in DRG neuronal cultures (Example 1); format: cell-based, rat
# Description: (§1) Dorsal root ganglia (DRG) were dissected from all spinal levels of adult male (150-175 g) Sprague-Dawley rats (Envigo, Indianapolis, Ind.) and the cells were dissociated as previously described (Kelley et al., 2014). Briefly, the rats were euthanized by CO2 asphyxiation. DRGs were transferred into collagenase solution (1 mg/ml) and incubated for 1 hour at 37° C. The digested DRGs were then rinsed with growth medium, centrifuged and dissociated by mechanical agitation. Approximately 30,000 cells were plated into each well of 12-well culture plates. All culture dishes were precoated with poly-D-lysine and laminin. Cells were maintained in F-12 media supplemented with 10% horse serum, 2 mM glutamine, 100 μg/ml Normocin, 50 μg/ml penicillin, 50 μg/ml streptomycin, 50 μM 5-fluoro-2′-deoxyuridine, 150 μM uridine, and 30 ng/ml of NGF in 3% CO2 at 37° C. Growth medium was changed every other day.
# (§2) Small interfering RNAs to APE1 (APE1siRNA) and scrambled siRNA (SCsiRNA) controls were used to decrease APE1 protein expression in sensory neuronal cell cultures and as controls, respectively, as described previously (Vasko et al., 2005, Jiang et al., 2008a). On day 3 in culture, the growth media was replaced with 0.5 ml of Opti-MEM 1 media containing 100 nM of APE1siRNA (5′-[…]-3′ (SEQ ID NO:1)) or SCsiRNA (5′-[…]-3′(SEQ ID NO:2)); (Vasko et al., 2005)) and 10 μl of the transfecting reagent, Neuroporter. On the next day, 0.5 ml of the growth media without antibiotics was added to each well, and after an additional 24 hours the media containing siRNA was replaced with normal growth media.
# (§3) Lentiviral constructs containing (1) the CMV promoter, HA-tagged APE1, IRES, and enhanced green fluorescent protein (EGFP); or (2) CMV, IRES, and EGFP were developed. DNA sequencing confirmed the constructs in the pLenti6-R4R2-V5 plasmid containing WT-, C65-, or 226+177-APE1-IRES-EGFP. For lentiviral infections, DRG cells were cultured 5 days before 150 pfu/cell of the lentivirus was added to the media. Two days later, the virus was removed and the cells grown an additional 5 days in regular media.
# Tissues or cells were harvested, lysed in RIPA buffer (Santa Cruz Biotechnology; Santa Cruz, Calif., USA), sonicated, and cleared of cellular debris by centrifuging at 4000 RPM for 2 minutes. Protein was quantified using Lowry assay, and electrophoresed in a 12% SDS-polyacrylamide gel. After electrophoresis, proteins were transferred to a PVDF membrane, and blocked with Tris-buffered saline containing 0.1% Tween-20 (TBST) and 5% nonfat dry milk for 1 hour at room temperature while gently agitating. Mouse monoclonal antihuman Ape1 antibodies (1:1000), mouse monoclonal anti-phospho H2AX antibodies (1:1000), mouse monoclonal anti-vinculin antibody (1:1000), and anti-Hemagglutinin (HA) antibody were added to the blocking solution and incubated for 2 hours at room temperature while gently agitating. Antibody binding was detected following appropriate secondary antibody methods using chemiluminescence. The density of the bands was measured using Quantity One software from Bio-Rad (Hercules, Calif.) and data expressed as density normalized to vinculin.
# [2] = test system: neuronal cultures derived from DRG; assay: CGRP release from DRG neuronal cultures (Example 1); format: cell-based, rat
# Description: as §1, §2, §3
# After neuronal cultures were treated with the appropriate drugs, the cultures were washed once with HEPES buffer consisting of (in mM) 25 HEPES, 135 NaCl, 3.5 KCl, 2.5 CaCl2, 1 MgCl2, 3.3 D-glucose, and 0.1% bovine serum albumin, pH 7.4 and maintained at 37° C. They were then incubated for successive 10-minute intervals with 0.4 ml of HEPES buffer alone (basal release), with buffer containing 30 nM capsaicin, then with buffer alone (to assess return to basal release). After each incubation, the buffer was removed and the amount of immunoreactive CGRP in each sample was measured using radioimmunoassay as previously described (Chen et al., 1996). After the release experiment, the cells in each well were in 0.4 ml of 0.1 M HCl10 minutes and an aliquot taken to measure total CGRP content in the cultures using radioimmunoassay. Total content (fmol/well) was calculated by adding the total amount released in all incubations to the amount measured in the cells. The release data is calculated as fmol released/well/10 minutes.
smiles,measurement,setting,value
CCCCCCCCC/C(=C\C1=C(C)C(=O)C(OC)=C(OC)C1=O)C(=O)O [APX3330],effect on LPS induction of pH2A.X,"[1]; E3330 20 μM pretreatment, LPS 3 μg/ml 24 hours, SCsiRNA- and APE1siRNA-treated cultures",prevented the induction of pH2A.X
same,effect on MCP-1 induction of pH2A.X,"[1]; E3330, SCsiRNA or APE1siRNA cultures, MCP-1 0.3 μg/ml 24 hours",prevented the induction of pH2A.X by MCP-1
same,effect on MCP-1-induced change in CGRP release,"[2]; E3330, MCP-1 0.3 μg/ml",prevented the change in CGRP release induced by MCP-1 exposure
same,stimulated release of CGRP in LPS-treated cultures,"[2]; SCsiRNA-treated cultures, LPS 3 μg/ml 24 hours plus APE1 expression or E3330",9.7±0.8 % of total content
